# Patent publication US11826365B2, “Type II raf kinase inhibitors” (Dana-Farber Cancer Institute, Inc., priority 2009, dated 2023)
# What was measured:
# Type in all cases: cell-based
# p38 = assay: Phosphorylation analysis by western blotting, phospho-p38 after anisomycin stimulation; settings: following stimulation with anisomycin; western blot, phospho-p38 (Thr180/Tyr182)
# Method: (§1) The phosphorylation levels of Erk, JNK, and p38 were assessed by western blotting using phospho-specific antibodies (results not shown). In brief, cells were treated for 15 min with/without 2 uM anicomycin to stimulate the MAPK-signaling pathways. Next various concentrations of the test compound were added to treat cells for 90 minutes. Cells lysed in lysis buffer (50 mM Tris-HCl pH 7.4, 150 mM NaCl, 5 mM EDTA, 1 mM EGTA, 1% Nonidet P-40, 2 mM Na3VO4 and protease inhibitor cocktail (Roche)). Equal amounts of lysate ([…]) were subjected to SDS-PAGE followed by immunoblotting with phospho-specific antibodies—anti-phospho-Erk (Thr202/Tyr204), anti-phospho-JNK (Thr183/Tyr185) and anti-phospho-p38 (Thr180/Tyr182) antibodies—or antibodies recognizing Erk (Cell signaling). Proteins were detected by enhanced chemioluminescence (ECL-plus; Amersham), following the manufacturer's guidelines.
# [1] = target: T1, B-RAF 'gatekeeper mutation' T529I (Homo sapiens, UniProt P15056, T529I); assay: Suppression of B-RAF gatekeeper mutation T529I (FIGS. 18A to 18B); settings: T529I confers resistance in other B-RAF inhibitors
# T1 construct: expressed in transfected cells; host or cells: Ba/F3 (murine pro-B) cells transformed with B-RAF
# T1 sequence (P15056 whole entry T529I): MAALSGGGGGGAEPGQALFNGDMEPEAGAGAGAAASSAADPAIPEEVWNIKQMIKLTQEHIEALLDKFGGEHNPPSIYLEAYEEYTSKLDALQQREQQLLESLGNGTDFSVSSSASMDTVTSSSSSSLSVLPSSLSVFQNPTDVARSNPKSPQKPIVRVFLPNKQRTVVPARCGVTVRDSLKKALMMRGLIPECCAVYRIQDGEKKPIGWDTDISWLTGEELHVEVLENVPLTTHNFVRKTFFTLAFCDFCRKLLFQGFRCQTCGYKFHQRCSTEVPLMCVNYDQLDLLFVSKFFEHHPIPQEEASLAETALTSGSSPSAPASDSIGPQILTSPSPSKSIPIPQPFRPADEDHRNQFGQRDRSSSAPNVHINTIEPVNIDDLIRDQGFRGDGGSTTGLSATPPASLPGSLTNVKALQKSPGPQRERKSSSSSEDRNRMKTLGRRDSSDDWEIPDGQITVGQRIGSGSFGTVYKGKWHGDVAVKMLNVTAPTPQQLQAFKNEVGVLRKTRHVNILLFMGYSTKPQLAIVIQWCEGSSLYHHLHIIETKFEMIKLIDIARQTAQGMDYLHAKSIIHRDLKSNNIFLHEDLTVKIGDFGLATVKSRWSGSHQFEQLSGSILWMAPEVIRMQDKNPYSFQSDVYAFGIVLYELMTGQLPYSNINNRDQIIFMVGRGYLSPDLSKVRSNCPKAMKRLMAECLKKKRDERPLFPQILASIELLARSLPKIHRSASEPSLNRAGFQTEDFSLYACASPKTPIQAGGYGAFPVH
# Method: Ba/F3 cells and B-RAF transformed Ba/F3 cells were maintained in RPMI 1640 medium supplemented with 10% fetal bovine serum (FBS) in a 5% CO2 incubator at 37° C. The untransformed Ba/F3 cells are supplemented with 1.0 ng/ml of recombinant IL3. 4000 Ba/F3 cells per well were plated in quadruplicate in 384-well plates, in RPMI 1640 media supplemented with 10% FBS and various concentrations of IL3. After 48 h of growth, Brightglo reagent (Promega, WI) was added to each well. Luminescent was read as counts/sec. XL-fit was used for IC50 analysis.
# JNK = assay: Phosphorylation analysis by western blotting, phospho-JNK after anisomycin stimulation; settings: following stimulation with anisomycin; western blot, phospho-JNK (Thr183/Tyr185)
# Method: as §1
# Erk1/2 = assay: Phosphorylation analysis by western blotting, phospho-Erk after anisomycin stimulation; settings: following stimulation with anisomycin; western blot, phospho-Erk (Thr202/Tyr204)
# Method: as §1
smiles,measurement,setting,value
"CCN1CCN(Cc2ccc(NC(=O)c3ccc(C)c(/C=C/c4cnc5[nH]ccc5c4OC)c3)cc2C(F)(F)F)CC1 [XI-1, (E)-N-(4-((4-ethylpiperazin-1-yl)methyl)-3-(trifluoromethyl)phenyl)-3-(2-(4-methoxy-1H-pyrrolo[2,3-b]pyridin-5-yl)vinyl)-4-methylbenzamide]",inhibition of phosphorylation of p38,p38,inhibits
same,suppression of B-RAF gatekeeper mutation T529I,[1],can suppress
same,inhibition of phosphorylation of JNK,JNK,inhibits
same,inhibition of phosphorylation of Erk1/2,Erk1/2,not
